Laboratory results from US20150175655A1 (priority 2012, published 2015).
Like-named read-outs stand apart in the source and are kept apart here.

What was measured:
[1] = rcm bond, Zhan 1B, DCE
NS3 genotype 1b protease = biological target: T1, NS3 genotype 1b protease (Hepatitis C virus genotype 1b, UniProt Q9WMX2, E1202G); assay: Ki determination, NS3 protease genotype 1b (fluorogenic depsipeptide substrate); format: biochemical
T1 construct: Purified NS3 protease domain (amino acids 1-181) of the genotype 1b and 3a virus were generated as above; K3 hexahistidine tag (N); rTEV protease cleavage site (N); made in house; host or cells: E. coli BL21AI, pET28 vector p28-N6H-Tev-NS3(181)1b
From the text: The coding sequence of the genotype 1b (con-1 strain) HCV NS3 protease domain was PCR amplified from a plasmid encoding the I389luc-ubi-neo/NS3-3′/ET replicon (Reblikon, Mainz, Germany). The 5′-PCR primer was designed to encode an N-terminal K3 hexahistidine tag and to insert an in-frame recombinant Tobacco Etch virus (rTEV) protease cleavage site into the NS3 coding sequence. The resulting DNA fragment was cloned into the pET28 protein expression vector (Invitrogen, Carlsbad, Calif.) yielding the p28-N6H-Tev-NS3(181)1b.
BL21AI bacteria (Invitrogen, Carlsbad, Calif.) were transformed with genotype 1b or 3 NS3 expression vectors and used to inoculate a 20 L fermentation vessel (Sartorius BBI System Inc., Bethlehem, Pa.), containing 18 L of fresh 2YT medium supplemented with 50 μg/mL kanamycin. When cell densities reached an OD600 of 1, the temperature of the cultures was reduced from 37° C. to 28° C. and induction was immediately initiated by the addition of 30 μM ZnSO4, 14 mM L-arabinose and 1 mM Isopropyl β-D-thiogalactoside (IPTG) final concentrations. Cells were harvested by centrifugation four hours post-induction and were stored as frozen pellets at −80° C. prior to NS3 protein purification.
Cell pellets were thawed and resuspended at 10 mL/g cells in lysis buffer containing 50 mM tris pH 7.6, 300 mM NaCl, 0.1% 3-[(3-cholamidopropyl)dimethylammonio]-1-propanesulfonate (CHAPS), 5% glycerol, and 2 mM β-mercaptoethanol. Cell suspensions were then sonicated, filtered through cheesecloth, and passed three times through a microfluidizer at 18,000 pounds/in^2. The resulting lysates were centrifuged at 15500 rpm for 45 minutes and supernatants were loaded onto a HisTrap HP column (GE Lifesciences) pre-equilibrated with five volumes of Ni buffer A (50 mM tris pH 7.6, 300 mM NaCl, 0.1% CHAPS, 5% glycerol, 2 mM β-mercaptoethanol, 50 mM imidazole-HCl). Proteins were eluted with a 0-100% gradient of Ni buffer A plus 500 mM imidazole-HCl and fractions were collected and pooled. The HisTrap pool was diluted 1:10 with SP-A buffer (50 mM tris pH 7.0, 10% glycerol, 2 mM dithiothreitol (DTT)) and loaded onto a HiTrap SP-HP column (GE Lifesciences) equilibrated with SP-A buffer. NS3 protease was eluted with a 0-100% SP-B buffer (SP-A buffer plus 1 M NaCl) gradient. Concentrated pools of NS3-containing SP fractions were aliquoted, snap frozen in liquid nitrogen and stored at −80° C.
Purified NS3 protease domain (amino acids 1-181) of the genotype 1b and 3a virus were generated as above.
Reactions were run at room temperature in buffer consisting of 50 mM HEPES, 40% glycerol, 0.05% Triton X-100, 10 mM DTT, and 10% DMSO. The final assay solutions contained 50 pM NS3 genotype 1b protease or 200 pM genotype 3a protease, 20 μM NS4A peptide, and 4 μM substrate (genotype 1 b) or 2 μM substrate (genotype 3a). Inhibitor concentrations varied from 100 nM to 5 pM in 3-fold dilutions, and no-inhibitor controls were included.
Compound dilutions were made in DMSO at 20× final concentration. Reaction mixtures were prepared in 96-well assay plates. A solution of enzyme and NS4A peptide in assay buffer (25 μL volume with both reagents at 4× final concentration) was mixed with 45 μL assay buffer and 5 μL of either inhibitor or DMSO, and pre-incubated at room temperature for 1 hour. The reaction was started by addition of 25 μL substrate solution at 4× final concentration. Plates were mixed vigorously for 5-10 seconds and reactions were allowed to proceed for 90 minutes. fluorescence was measured every 30 s between 90 and 120 minutes reaction time using a Tecan InfiniTe M1000 or PerkinElmer Envision multimode plate reader with an excitation wavelength of 340 nm and an emission wavelength of 490 nm.
To determine the K, rates were plotted as a function of inhibitor concentration, and the data were fit with equation 1 (Morrison, J. F., Biochimica et Biophysica Acta 1969, 185, 269-286) to calculate Ki^app using GraphPad Prism 5.

[2] = test system: genotype 1b (Con1) wild-type transient HCV replicon in Huh-7-derived cells; assay: Transient-transfected HCV replicon EC50, genotype 1b wild type; format: cell-based; details: Hepatitis C virus; transient-transfected replicon genotype 1b wild type, 72 h; read-out: EC50 1B WT
[3] = test system: genotype 1a (H77) wild-type transient HCV replicon in Huh-7-derived cells; assay: Transient-transfected HCV replicon EC50, genotype 1a wild type; format: cell-based; details: Hepatitis C virus; transient-transfected replicon genotype 1a wild type, 72 h; read-out: EC50 1A WT
[4] = test system: genotype 1a transient HCV replicon, NS3/4a protease inhibitor resistant variant R155K, in Huh-7-derived cells; assay: Transient-transfected HCV replicon EC50, genotype 1a R155K; format: cell-based; details: Hepatitis C virus, 72 h, read-out: EC50 1A R155K
[5] = test system: genotype 1b transient HCV replicon, NS3/4a protease inhibitor resistant variant D168A, in Huh-7-derived cells; assay: Transient-transfected HCV replicon EC50, genotype 1b D168A; format: cell-based; details: Hepatitis C virus, 72 h, read-out: EC50 1B D168A
NS3 genotype 3a protease = biological target: T2, NS3 genotype 3a protease (UniProt Q81258); assay: Ki determination, NS3 protease genotype 3a (fluorogenic depsipeptide substrate); format: biochemical, hepatitis C virus; details: 200 pM enzyme, 20 μM NS4A peptide, 2 μM substrate, read-out: Ki 3A
T2 construct: Purified NS3 protease domain (amino acids 1-181) of the genotype 1b and 3a virus were generated as above; fused on or other part: N-terminal hexahistidine tag and rTEV protease cleavage site (vector p28-N6H-Tev-NS3(181)3)
T2 sequence (Q81258 1033-1663): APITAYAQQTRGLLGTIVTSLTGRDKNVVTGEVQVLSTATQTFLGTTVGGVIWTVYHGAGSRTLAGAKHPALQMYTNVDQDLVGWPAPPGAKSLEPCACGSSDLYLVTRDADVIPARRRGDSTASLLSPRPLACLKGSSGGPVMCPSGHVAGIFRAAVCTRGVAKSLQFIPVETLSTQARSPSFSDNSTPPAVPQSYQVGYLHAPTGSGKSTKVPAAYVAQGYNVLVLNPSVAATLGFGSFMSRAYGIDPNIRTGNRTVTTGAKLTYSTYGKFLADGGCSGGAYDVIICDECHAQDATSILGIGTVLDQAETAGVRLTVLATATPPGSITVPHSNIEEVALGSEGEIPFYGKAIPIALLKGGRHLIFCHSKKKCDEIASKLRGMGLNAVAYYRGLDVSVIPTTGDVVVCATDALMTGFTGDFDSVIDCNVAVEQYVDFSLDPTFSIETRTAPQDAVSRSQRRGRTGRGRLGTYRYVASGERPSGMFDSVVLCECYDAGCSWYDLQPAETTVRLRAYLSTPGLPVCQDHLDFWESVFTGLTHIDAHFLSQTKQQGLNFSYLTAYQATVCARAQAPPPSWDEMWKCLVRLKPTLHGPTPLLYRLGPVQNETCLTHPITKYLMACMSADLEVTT
Method in brief: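 Refolded His-tagged NS3 protease domain (aa 1-181, genotype 3a) at 200 pM with 20 μM NS4A peptide was pre-incubated 1 h at RT with inhibitor (100 nM–5 pM, 3-fold), then 2 μM FRET depsipeptide substrate was added in HEPES/40% glycerol/10% DMSO buffer. Steady-state rates over 90-120 min (ex 340/em 490 nm) versus inhibitor concentration gave Ki.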

CC[C@@H]1[C@@H]2CN(C(=O)[C@H](C(C)(C)C)NC(=O)OC3(C(F)(F)F)CCCC3CCCC=Cc3nc4ccc(OC)cc4nc3O2)[C@@H]1C(=O)OC(C)(C)C (stereo partly shown)
ring closure, yield of all isomers ([1]; from C=CCCCC1CCCC1(OC(=O)N[C@H](C(=O)N1C[C@H](Oc2nc3cc(OC)ccc3nc2C=C)[C@@H](CC)[C@H]1C(=O)OC(C)(C)C)C(C)(C)C)C(F)(F)F, 5.0 mM, 100.0 °C, 0.5 h): 84.7%

CC[C@@H]1[C@@H]2CN(C(=O)[C@H](C(C)(C)C)NC(=O)O[C@@H]3[C@H]4CC[C@H](C4)[C@H]3CCCC=Cc3nc4ccc(OC)cc4nc3O2)[C@@H]1C(=O)OC(C)(C)C
ring closure, yield of all isomers ([1]; from C=CCCCC1C2CCC(C2)C1OC(=O)N[C@H](C(=O)N1C[C@H](Oc2nc3cc(OC)ccc3nc2C=C)[C@@H](CC)[C@H]1C(=O)OC(C)(C)C)C(C)(C)C, 4.0 mM, 100.0 °C, 0.75 h): 45.2%

CC[C@@H]1[C@@H]2CN(C(=O)[C@H](C(C)(C)C)NC(=O)O[C@]3(C)CCC[C@H]3CCCC=Cc3nc4ccc(OC)cc4nc3O2)[C@@H]1C(=O)OC
ring closure, yield of all isomers ([1]; from C=CCCC[C@@H]1CCC[C@@]1(C)OC(=O)N[C@H](C(=O)N1C[C@H](Oc2nc3cc(OC)ccc3nc2C=C)[C@@H](CC)[C@H]1C(=O)OC)C(C)(C)C, 19.9 mM, 80.0 °C, […]): 77.2%

COC(=O)[C@@H]1[C@H](C2CC2)[C@@H]2CN1C(=O)[C@H](C(C)(C)C)NC(=O)O[C@@H]1C[C@H]1CCCC=Cc1nc3ccc(OC)cc3nc1O2
ring closure, yield of all isomers ([1]; from C=CCCC[C@@H]1C[C@H]1OC(=O)N[C@H](C(=O)N1C[C@H](Oc2nc3cc(OC)ccc3nc2C=C)[C@@H](C2CC2)[C@H]1C(=O)OC)C(C)(C)C, 4.96 mM, 83.0 °C, 0.83 h): 39%

COc1ccc2nc3c(nc2c1)O[C@H]1CN(C(=O)[C@H](C(C)(C)C)NC(=O)O[C@@H]2CCC[C@H]2CCCC=C3)[C@H](C(=O)OC(C)(C)C)[C@@H]1C
ring closure, yield of all isomers ([1]; from C=CCCC[C@@H]1CCC[C@H]1OC(=O)N[C@H](C(=O)N1C[C@H](Oc2nc3cc(OC)ccc3nc2C=C)[C@@H](C)[C@H]1C(=O)OC(C)(C)C)C(C)(C)C, 4.97 mM, 83.0 °C, […]): 78.5%

COc1ccc2nc3c(nc2c1)O[C@H]1CN(C(=O)[C@H](C(C)(C)C)NC(=O)O[C@@H]2C[C@@H]4C[C@@H]4[C@H]2CCCC=C3)[C@H](C(=O)OC(C)(C)C)[C@@H]1C
ring closure, yield of all isomers ([1]; from C=CCCCC1C(OC(=O)N[C@H](C(=O)N2C[C@H](Oc3nc4cc(OC)ccc4nc3C=C)[C@@H](C)[C@H]2C(=O)OC(C)(C)C)C(C)(C)C)CC2CC21, 2.91 mM, 85.0 °C, 1.75 h): 33.1%

CC[C@@H]1[C@@H]2CN(C(=O)[C@H](C3CCCCC3)NC(=O)O[C@@H]3C[C@H]3CCCCCc3nc4ccc(OC)cc4nc3O2)[C@@H]1C(=O)N[C@]1(C(=O)NS(=O)(=O)C2(C)CC2)C[C@H]1C(F)F [Example 16, (1aR,5S,8S,9S,10R,22aR)-5-cyclohexyl-N-[(1R,2R)-2-(difluoromethyl)-1-{[(1-methylcyclopropyl)sulfonyl]carbamoyl}cyclopropyl]-9-ethyl-14-methoxy-3,6-dioxo-1,1a,3,4,5,6,9,10,18,19,20,21,22,22a-tetradecahydro-8H-7,10-methanocyclopropa[18,19][1,10,3,6]dioxadiazacyclononadecino[11,12-b]quinoxaline-8-carboxamide]
Ki (NS3 genotype 1b protease): 0.09 nM | EC50 [2]: 5.8 nM | EC50 [3]: 9.4 nM | EC50 [4]: 22 nM | EC50 [5]: 61 nM

COc1ccc2nc3c(nc2c1)O[C@H]1CN(C(=O)[C@H](C(C)(C)C)NC(=O)O[C@@H]2C[C@H]2CCCCC3)[C@H](C(=O)N[C@]2(C(=O)NS(=O)(=O)C3(C)CC3)C[C@H]2C(F)F)[C@@H]1C [Example 18, (1aR,5S,8S,9S,10R,22aR)-5-tert-butyl-N-[(1R,2R)-2-(difluoromethyl)-1-{[(1-methylcyclopropyl)sulfonyl]carbamoyl}cyclopropyl]-14-methoxy-9-methyl-3,6-dioxo-1,1a,3,4,5,6,9,10,18,19,20,21,22,22a-tetradecahydro-8H-7,10-methanocyclopropa[18,19][1,10,3,6]dioxadiazacyclononadecino[11,12-b]quinoxaline-8-carboxamide]
EC50 [2]: 1.2 nM | EC50 [3]: 2.3 nM | EC50 [5]: 24 nM

CC[C@@H]1[C@@H]2CN(C(=O)[C@H](C(C)(C)C)NC(=O)O[C@@H]3C[C@H]3CC/C=C/C(F)(F)c3nc4ccc(C#N)cc4nc3O2)[C@@H]1C(=O)N[C@]1(C(=O)NS(=O)(=O)C2(C)CC2)C[C@H]1C(F)F [Example 84, (1aR,5S,8S,9S,10R,19E,22aR)-5-tert-butyl-14-cyano-N-[(1R,2R)-2-(difluoromethyl)-1-{[(1-methylcyclopropyl)sulfonyl]carbamoyl}cyclopropyl]-9-ethyl-18,18-difluoro-3,6-dioxo-1,1a,3,4,5,6,9,10,18,21,22,22a-dodecahydro-8H-7,10-methanocyclopropa[18,19][1,10,3,6]dioxadiazacyclononadecino[11,12-b]quinoxaline-8-carboxamide]
Ki (NS3 genotype 3a protease): 0.08 nM | Ki (NS3 genotype 1b protease): 0.04 nM
